# Legend:
# ERβ [1] = target: T1, ERβ (Homo sapiens, UniProt Q92731); conditions: in the presence of ERβ
# Source text: (§1) Plasmid Construction. […] ERβ mutants were created with QuikChange site-directed mutagenesis kits (Stratagene), by using oligonucleotides containing the mutation. The mutants were sequenced with Sequenase kits (Amersham Pharmacia) to verify the presence of the mutation.
# ERβ [2] = target: T1, ERβ; experiment: Repression of TNF-α activation of TNF-RE tkLuc in U2OS cells; assay type: cell-based; parameters: expressed in transfected cells
# ERβ [3] = target: T1, ERβ; experiment: ERE-tk-Luc luciferase assay in U2OS osteosarcoma cells; assay type: cell-based; parameters: expressed in transfected cells; host or cells: U2OS (human osteosarcoma); conditions: co-administration with the extract
# TNF-RE tkLuc = experiment: Activation of TNF-RE tkLuc reporter (Example 2); assay type: cell-based, human; conditions: for effect on the repression induced by E2: TNF-RE tkLuc
# Source text: as §1
# breast cancer [4] = conditions: among 5129 women in the treatment group, median follow-up 40 months; cited from earlier work
# breast cancer [5] = conditions: cited from earlier work
# T1 sequence (Q92731 whole entry): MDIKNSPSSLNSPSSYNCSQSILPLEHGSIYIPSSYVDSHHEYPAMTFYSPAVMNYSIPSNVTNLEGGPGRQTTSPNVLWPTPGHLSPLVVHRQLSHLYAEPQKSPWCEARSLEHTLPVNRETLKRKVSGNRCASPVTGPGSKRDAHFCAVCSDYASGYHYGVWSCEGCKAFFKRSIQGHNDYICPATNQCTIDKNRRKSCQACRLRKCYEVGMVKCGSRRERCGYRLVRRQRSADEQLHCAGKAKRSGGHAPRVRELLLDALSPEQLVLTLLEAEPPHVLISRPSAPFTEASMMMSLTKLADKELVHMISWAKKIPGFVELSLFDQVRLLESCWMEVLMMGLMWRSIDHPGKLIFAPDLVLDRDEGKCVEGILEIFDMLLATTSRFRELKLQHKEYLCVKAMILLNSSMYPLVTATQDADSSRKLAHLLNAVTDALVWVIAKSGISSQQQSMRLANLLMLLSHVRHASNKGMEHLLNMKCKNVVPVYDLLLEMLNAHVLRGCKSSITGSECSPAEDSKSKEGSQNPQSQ
compound,measurement,setting,value
"C[C@]12CC[C@@H]3c4ccc(O)cc4CC[C@H]3[C@@H]1CC[C@@H]2O [Herb E2, estradiol]",repression of TNF-α activation of TNF-RE tkLuc,ERβ [1],60-80%
same,repression of TNF-α activation of TNF-RE,ERβ [2],100%
C[C@]12CC[C@@H]3c4ccc(O)cc4C[C@@H](CCCCCCCCC[S+]([O-])CCCC(F)(F)C(F)(F)F)[C@H]3[C@@H]1CC[C@@H]2O (some centres unmarked) [ICI 182780],effect of anti-estrogen on extract-stimulated ERE-tk-Luc expression,ERβ [3]; FIG. 5,counteracted
same,effect of anti-estrogen on extract-stimulated ERE-tk-Luc expression,"ERβ [3]; FIG. 5, listed as ICI",attenuated
same,activation of TNF-RE tkLuc by antiestrogens,TNF-RE tkLuc,2 fold
same,effect on the repression induced by E2,TNF-RE tkLuc,abolished the repression induced by E2
O=C(c1ccc(OCCN2CCCCC2)cc1)c1c(-c2ccc(O)cc2)sc2cc(O)ccc12 [raloxifene],effect of anti-estrogen on extract-stimulated ERE-tk-Luc expression,ERβ [3]; FIG. 5,counteracted
same,effect of anti-estrogen on extract-stimulated ERE-tk-Luc expression,"ERβ [3]; FIG. 5, listed as Raloxifene",attenuated
same,activation of TNF-RE tkLuc by antiestrogens,TNF-RE tkLuc,2 fold
same,effect on the repression induced by E2,TNF-RE tkLuc,abolished the repression induced by E2
same,cases of breast cancer,breast cancer [4],13 cases
CC/C(=C(\c1ccccc1)c1ccc(OCCN(C)C)cc1)c1ccccc1 [tamoxifen],activation of TNF-RE tkLuc by antiestrogens,TNF-RE tkLuc,2 fold
same,effect on the repression induced by E2,TNF-RE tkLuc,abolished the repression induced by E2
same,reduction of the risk of primary invasive breast cancer,"breast cancer [5]; BCPT, women at high risk for breast cancer",49%
same,reduction of the risk of recurrences,"breast cancer [5]; five years of therapy, ER-positive breast cancer",42%
same,reduction of mortality from breast cancer,breast cancer [5]; five years of therapy,22%
TNF-α,activation of 3 copies of the TNF-RE (−125 to −82) upstream of the tk promoter,TNF-RE tkLuc; TNF-α as stimulus,5-10 fold
